Measurements from US9955689B2, “Method for promoting plant growth” (SUMITOMO CHEMICAL COMPANY, LIMITED, priority 2012, dated 2018).

tested on: Nicotiana benthamiana; assay: Test Example 5: growth promotion under low-temperature stress by hydroponics of Nicotiana benthamiana (1 ppm); type: in vivo; details: compound at 1 ppm, 7 days at 1.5±1.0° C. low-temperature stress, then 3 days at 22° C., 5 or greater = growth promotion effect, read-out: value of a relative leaf area (Equation (1), area of green leaf)
Description: Test Example 5. Test for Evaluating Growth Promotion Under Low-Temperature Stress by Hydroponics of Nicotiana benthamiana
(Cultivation and Compound Treatment)
A DMSO solution, which contained one of the compounds 9, 10, 15, 16, 27 to 29, 31 to 37, 40, 44, 47, 48, 52, 55, 56, 58, 61, 63, 81, 87, 89, 92, 95, 98, 100, 102, 105, 108, 109, 111, 113, and 115 of the present invention at a concentration of 1,000 ppm, was prepared. The DMSO solution of the compound of the present invention was added at a volume ratio of 1/1,000 to the Murashige-Scoog medium of a ½-fold concentration (a medium containing 2.3 g of mixed salts (manufactured by Wako Pure Chemical Industries, Ltd.), 200 mg of Myo-inositol (manufactured by Sigme-Aldrich Co. LLC.), 2 mg of niconitic acid (manufactured by Wako Pure Chemical. Industries, Ltd.), 2 mg of pyridoxine hydrochloride (manufactured by Wako Pure Chemical Industries, Ltd.), 20 mg of thiamine hydrochloride (manufactured by Wako Pure Chemical Industries, Ltd.), 20 g of sucrose (manufactured by Wako Pure Chemical Industries, Ltd.), and 1 g of MES (manufactured by DOJINDO LABORATORIES) respectively per 1 L of water and having pH adjusted to 5.8), thereby preparing a medium containing the compound of the present invention at a concentration of 1 ppm.
Seeds of Nicotiana benthamiana were seeded in the 5 μL of the medium and cultured overnight at 22° C. Thereafter, 45 μL of the medium containing the compound of the present invention at a concentration of 1 ppm was added thereto, and the seeds are cultured for 7 days at 22° C. under the conditions of an illuminance of 4,000 lux, and a day length of 16 hours, and the seedlings raised from the Nicotiana benthamiana were treated with the compound. Moreover, instead of the above medium a test plot, which was obtained by performing the same treatment by using a medium prepared by adding DMSO to the Murashige⋅Scoog medium of ½-fold concentration at a volume ratio of 1/1,000, was used as a control plot not treated with the compound.
(Low-Temperature Stress Treatment)
The seedlings of the Nicotiana benthamiana treated with the compound were subjected to low-temperature treatment by being cultured for 7 days at 1.5±1.0° C., under the conditions of an illuminance of 2,000 lux, and a day length of 16 hours.
The seedlings of the Nicotiana benthamiana having undergone the low-temperature stress treatment were cultured for 3 days at 22° C. under the conditions of an illuminance of 4,000 lux, and a day length of 16 hours. Thereafter, the area of green leaf was quantified by Scanalyzer HTS (manufactured by LemnaTec GmbH). Moreover, the value of the control plot not treated with the compound that had not yet been subjected to the low-temperature stress treatment was measured in the same manner. A value of a relative leaf area was calculated based on the following equation (1), and if the relative value of leaf area was 5 or greater, the compound was evaluated to have a growth promotion effect. As a result of the evaluation, it was confirmed that when the plant was treated with one of the compounds 9, 10, 15, 16, 27 to 29, 31 to 37, 40, 44, 47, 48, 52, 55, 56, 58, 61, 63, 81, 87, 89, 92, 95, 98, 100, 102, 105, 108, 109, 111, 113, and 115 of the present invention at 1 ppm, the value of a relative leaf area was 5 or greater, compared to the area of green leaf of the control plot not treated with compound. Accordingly, it was confirmed that the treatment using the compound of the present invention improve a growth promotion effect. Relative leaf area=100*(a green area of a plot treated with the compound of the present invention minus(−) a green area of a plot not treated with the compound of the present invention)/(a green area of a control plot not treated with the compound of the present invention that had not yet been subjected to low-temperature stress treatment minus(−) a green area of a control plot not treated with the compound of the present invention) Equation (1): […]

Question: Which relative leaf area at 1 ppm does the source give for `O=C(O)c1cc2cc(C(=O)C(F)(F)F)ccc2s1` [Present compound 58, 5-(trifluoroacetyl)benzo[b]thiophene-2-carboxylic acid] here?
Answer: ≥ 5%

Question: For `N#Cc1ccc2sc(C(=O)O)cc2c1` [Present compound 16, 5-cyanobenzo[b]thiophene-2-carboxylic acid], which relative leaf area at 1 ppm is on record?
Answer: ≥ 5%

Question: Which relative leaf area at 1 ppm does the source give for `O=C(O)c1cc2cc(-c3ncccn3)ccc2s1` [Present compound 48, 5-(2-pyrimidinyl)benzo[b]thiophene-2-carboxylic acid] here?
Answer: ≥ 5%

Question: With `Nc1c(C(=O)O)sc2ccccc12` [Present compound 63, 3-amino-benzo[b]thiophene-2-carboxylic acid] as the compound, how does the relative leaf area at 1 ppm read?
Answer: ≥ 5%

Question: `CC(=O)c1ccc2sc(C(=O)O)cc2c1` [Present compound 56, 5-acetylbenzo[b]thiophene-2-carboxylic acid] was tested. Which relative leaf area at 1 ppm did it give?
Answer: ≥ 5%

Question: With `CCOc1c(C(=O)O)sc2ccc(C(F)(F)F)cc12` [Present compound 113, 3-ethoxy-5-trifluoromethylbenzo[b]thiophene-2-carboxylic acid] as the compound, how does the relative leaf area at 1 ppm read?
Answer: ≥ 5%

Question: How did the relative leaf area at 1 ppm turn out when `O=C(O)c1cc2cccc(Oc3ccc(C(F)(F)F)cc3)c2s1` [Present compound 95, 7-(4-trifluoromethylphenoxy)benzo[b]thiophene-2-carboxylic acid] was run?
Answer: ≥ 5%

Question: How did the relative leaf area at 1 ppm turn out when `CNc1c(C(=O)O)sc2ccc(C(F)(F)F)cc12` [Present compound 109, 3-(N-methylamino)-5-trifluoromethylbenzo[b]thiophene-2-carboxylic acid] was run?
Answer: ≥ 5%

Question: `O=C(O)c1cc2cc(SC(F)(F)F)ccc2s1` [Present compound 98, 5-(trifluoromethylthio)benzo[b]thiophene-2-carboxylic acid] was tested. Which relative leaf area at 1 ppm did it give?
Answer: ≥ 5%

Question: With `Nc1c(C(=O)O)sc2ccc(C(F)(F)F)cc12` [Present compound 108, 3-amino-5-trifluoromethylbenzo[b]thiophene-2-carboxylic acid] as the compound, how does the relative leaf area at 1 ppm read?
Answer: ≥ 5%

Question: How did the relative leaf area at 1 ppm turn out when `O=C(O)c1cc2c(Br)cccc2s1` [Present compound 10, 4-bromobenzo[b]thiophene-2-carboxylic acid] was run?
Answer: ≥ 5%

Question: `O=C(O)c1cc2cc(OC(F)(F)F)ccc2s1` [Present compound 89, 5-trifluoromethoxybenzo[b]thiophene-2-carboxylic acid] was tested. Which relative leaf area at 1 ppm did it give?
Answer: ≥ 5%

Question: With `O=C(O)c1cc2cc(I)ccc2s1` [Present compound 15, 5-iodobenzo[b]thiophene-2-carboxylic acid] as the compound, how does the relative leaf area at 1 ppm read?
Answer: ≥ 5%

Question: With `Cc1cccc(-c2cccc3cc(C(=O)O)sc23)c1` [Present compound 40, 7-(3-methylphenyl)benzo[b]thiophene-2-carboxylic acid] as the compound, how does the relative leaf area at 1 ppm read?
Answer: ≥ 5%

Question: How did the relative leaf area at 1 ppm turn out when `COc1cccc(COc2ccc3cc(C(=O)O)sc3c2)c1` [Present compound 92, 6-(3-methoxybenzyloxy)benzo[b]thiophene-2-carboxylic acid] was run?
Answer: ≥ 5%

Question: With `O=C(O)c1sc2ccc(C(F)(F)F)cc2c1Cl` [Present compound 105, 3-chloro-5-trifluoromethylbenzo[b]thiophene-2-carboxylic acid] as the compound, how does the relative leaf area at 1 ppm read?
Answer: ≥ 5%

Question: For `O=C(O)c1sc2ccc(C(F)(F)F)cc2c1O` [Present compound 111, 3-hydroxy-5-trifluoromethylbenzo[b]thiophene-2-carboxylic acid], which relative leaf area at 1 ppm is on record?
Answer: ≥ 5%

Question: For `O=C(O)c1cc2c(Cl)c(Cl)ccc2s1` [Present compound 102, 4,5-dichlorobenzo[b]thiophene-2-carboxylic acid], which relative leaf area at 1 ppm is on record?
Answer: ≥ 5%

Question: How did the relative leaf area at 1 ppm turn out when `O=C(O)c1sc2ccc(C(F)(F)F)cc2c1OCc1ccccc1` [Present compound 115, 3-benzyloxy-5-trifluoromethylbenzo[b]thiophene-2-carboxylic acid] was run?
Answer: ≥ 5%

Question: With `CC(C)Oc1c(C(=O)O)sc2ccccc12` [Present compound 87, 3-isopropoxybenzo[b]thiophene-2-carboxylic acid] as the compound, how does the relative leaf area at 1 ppm read?
Answer: ≥ 5%

Question: Which relative leaf area at 1 ppm does the source give for `O=C(O)c1cc2ccc(-c3ccc(C(F)(F)F)nc3)cc2s1` [Present compound 47, 6-(6-trifluoromethyl-3-pyridyl) benzo[b]thiophene-2-caboxylic acid] here?
Answer: ≥ 5%

Question: With `O=C(O)c1cc2cc(S(=O)(=O)C(F)(F)F)ccc2s1` [Present compound 100, 5-(trifluoromethylsulfonyl)benzo[b]thiophene-2-carboxylic acid] as the compound, how does the relative leaf area at 1 ppm read?
Answer: ≥ 5%

Question: `O=C(O)c1cc2c(C(=O)O)cccc2s1` [Present compound 52, benzo[b]thiophene-2,4-dicarboxylic acid] was tested. Which relative leaf area at 1 ppm did it give?
Answer: ≥ 5%

Question: Which relative leaf area at 1 ppm does the source give for `COc1cccc2sc(C(=O)O)cc12` [Present compound 81, 4-methoxybenzo[b]thiophene-2-carboxylic acid] here?
Answer: ≥ 5%

Question: How did the relative leaf area at 1 ppm turn out when `O=C(O)c1cc2cc(-c3ccccn3)ccc2s1` [Present compound 44, 5-(2-pyridyl)benzo[b]thiophene-2-carboxylic acid] was run?
Answer: ≥ 5%

Question: `Nc1ccc2sc(C(=O)O)cc2c1` [Present compound 61, 5-aminobenzo[b]thiophene-2-carboxylic acid] was tested. Which relative leaf area at 1 ppm did it give?
Answer: ≥ 5%
